pIC50: −log10 of the molar value.
How the values were obtained:
[1] = system: ISG gene expression induced by MSA-2 in human THP1-Dual cells; assay: Inhibition of MSA-2-induced ISG gene expression in human THP1-Dual cells (QUANTI-Luc); type: cell-based; details: STING agonist MSA-2 10 µM, incubated for 24 hours
Method: 10 µL of compound diluted with PBS/physiological saline was added to each well of a 96 well cell culture plate. The STING agonist was MSA-2, which was added to the counted cell suspension at a final concentration of 10 µM. For the control group without compounds, 10 µL of PBS/physiological saline containing 2% DMSO was added. 3 replicate wells were set in each group. THP1-Dual cells were counted and adjusted to a cell concentration of 4×10^5/mL, and 190 µL of cells containing STING agonist were added to each well for incubation. Therefore, the final volume of each test well was 200 µL, the content of DMSO was 0.1%, and the final concentration of the compound tested was 10/3.3/1.1/0.4/0.13/0.04/0.013/0.004 µM, incubated for 24 hours. In addition, 190 µL of cells without STING agonist and 10 µL of physiological saline containing 2% DMSO were added to the blank group. 3 replicate wells were set in each group.
After 24 hours, 20 µL of culture medium for THP1-Dual cells was taken from each well and transferred to a new 96 well plate with photopermeable bottom. 50 µL of the luciferase detection reagent QUANTI-Luc™ was added, and the […] was immediately measured (avoid light). Result analysis:Inhibition rate (%) = (Con(Lum)−Treated(Lum))/Con(Lum) × 100% [formula]
(§1) The IC50 calculation of inhibitors was implemented using the Graphpad Prism 8 software's calculation method log (inhibitor) vs. response - Variable slope (four parameters), with a constrain interval of 0-100.

[2] = system: DMXAA induced ISG gene expression in mouse RAW-Lucia cells; assay: Inhibition of DMXAA-induced ISG gene expression in mouse RAW-Lucia cells (QUANTI-Luc); type: cell-based; details: STING agonist DMXAA 50 µM, incubated for 24 hours
Method: 10 µL of compound diluted with PBS/physiological saline was added to each well of a 96 well cell culture plate. The STING agonist was DMXAA, which was added to the counted cell suspension at a final concentration of 50 µM. For the control group without compounds, 10 µL of PBS/physiological saline containing 2% DMSO was added. 3 replicate wells were set in each group. RAW-Lucia cells were counted and adjusted to a cell concentration of 4×10^5/mL, and […] of cells were added to each well for incubation. Therefore, the final volume of each test well was 200 µL, the content of DMSO was 0.1%, and the final concentration of the compound tested was 10/3.3/1.1/0.4/0.13/0.04/0.013/0.004 µM. The final concentration of STING agonist DMXAA was 50 µM. The mixture was incubated for 24 hours. In addition, 200 µL of culture medium was added to the blank group. 3 replicate wells were set in each group.
After 24 hours, 20 µL of culture medium was taken from each well and transferred to a new 96 well plate with photopermeable bottom. 50 µL of the luciferase detection reagent QUANTI-Luc™ was added, and the […] was immediately measured (avoid light).
Result analysis: Inhibition rate (%) = (Con(Lum)−Treated(Lum))/Con(Lum) × 100% [formula]
as §1

Row | Structure (SMILES) | pIC50 [1] | pIC50 [2]
1 | O=C(Nc1c[nH]c2ccc(F)cc12)c1cc2c(s1)SCC(=O)N2Cc1ccoc1 [Example I-122, N-(5-fluoro-1H-indol-3-yl)-1-(furan-3-ylmethyl)-2-oxo-2,3-dihydro-1H-thieno[2,3-b][1,4]thiazin-6-carboxamide] | 6.57 | 7.80
2 | O=C(Nc1c[nH]c2ccccc12)c1cc2c(s1)SCC(=O)N2Cc1ccoc1 [Example I-117, 1-(furan-3-ylmethyl)-N-(1H-indol-3-yl)-2-oxo-2,3-dihydro-1H-thieno[2,3-b][1,4]thiazin-6-carboxamide] | 7.07 | 7.12
3 | O=C(Nc1c[nH]c2ccc(F)cc12)c1cc2c(s1)SCC(=O)N2Cc1ccco1 [Example I-121, N-(5-fluoro-1H-indol-3-yl)-1-(furan-2-ylmethyl)-2-oxo-2,3-dihydro-1H-thieno[2,3-b][1,4]thiazin-6-carboxamide] | 6.57 | 7.50
4 | CC1(C)C(=O)N(Cc2ccccc2)c2cc(C(=O)Nc3c[nH]c4ccc(F)cc34)ccc21 [Example I-105] | 7.15 | 8.47
5 | O=C(Nc1c[nH]c2ccc(F)cc12)c1cc2c(s1)SCC(=O)N2Cc1cc(F)cc(C(F)(F)F)c1 [Example I-124, N-(5-fluoro-1H-indol-3-yl)-1-(3-fluoro-5-(trifluoromethyl)benzyl)-2-oxo-2,3-dihydro-1H-thieno[2,3-b][1,4]thiazin-6-carboxamide] | 7.32 | > 8.52
6 | CCC1(C)C(=O)N(Cc2ccccc2)c2cc(C(=O)Nc3c[nH]c4ccccc34)ccc21 (stereo not drawn) [Example I-101] | 7.79 | 7.41
7 | O=C(Nc1c[nH]c2ccccc12)c1cc2c(s1)SCC(=O)N2Cc1ccsc1 [Example I-112, N-(1H-indol-3-yl)-2-oxo-1-(thien-3-ylmethyl)-2,3-dihydro-1H-thieno[2,3-b][1,4]thiazin-6-carboxamide] | 7.33 | 7.38
8 | CC1(C)C(=O)N(Cc2csc(C(F)(F)F)c2)c2cc(C(=O)Nc3c[nH]c4ccccc34)ccc21 [Example I-102] | 7.68 | 7.97
9 | CC1(C)C(=O)N(Cc2cc(F)cc(C(F)(F)F)c2)c2cc(C(=O)Nc3c[nH]c4cc(F)c(F)cc34)ccc21 [Example I-111] | 6.91 | 7.54
10 | CC(c1ccccc1)N1C(=O)C(C)(C)c2ccc(C(=O)Nc3c[nH]c4ccccc34)cc21 (stereo not drawn) [Example I-100, N-(1H-indol-3-yl)-3,3-dimethyl-2-oxo-1-(1-phenethyl)indolin-6-carboxamide] | 7.22 | 7.82
11 | CC1(C)C(=O)N(Cc2cc(F)cc(C(F)(F)F)c2)c2cc(C(=O)Nc3c[nH]c4ccc(F)cc34)ccc21 [Example I-110] | 7.43 | 7.84
12 | CC1(C)C(=O)N(CCc2ccsc2)c2cc(C(=O)Nc3c[nH]c4ccccc34)ccc21 [Example I-108, N-(1H-indol-3-yl)-3,3-dimethyl-2-carbonyl-1-(2-(thien-3-yl)ethyl) indolin-6-carboxamide] | 7.15 | 8.76
13 | CC1(C)C(=O)N(Cc2ccsc2)c2cc(C(=O)Nc3c[nH]c4ccccc34)sc21 [Example I-85, N-(1H-indol-3-yl)-6,6-dimethyl-5-oxo-4-(thien-3-ylmethyl)-5,6-dihydro-4H-thieno[3,2-b]pyrrol-2-carboxamide] | 7.78 | 7.71
14 | CC1(C)C(=O)N(Cc2csc(Cl)c2)c2cc(C(=O)Nc3c[nH]c4ccccc34)ccc21 [Example I-84, 1-((5-chlorothien-3-yl)methyl)-N-(1H-indol-3-yl)-3,3-dimethyl-2-oxoindolin-6-carboxamide] | 7.69 | 8.33
15 | O=C(Nc1c[nH]c2ccccc12)c1cc2c(s1)SCC(=O)N2Cc1cc(F)cc(C(F)(F)F)c1 [Example I-115, 1-(3-fluoro-5-(trifluoromethyl)benzyl)-N-(1H-indol-3-yl)-2-oxo-2,3-dihydro-1H-thieno[2,3-b][1,4]thiazin-6-carboxamide] | 7.91 | 8.12

Reference: patent EP4748844A1, “AZETIDINE COMPOUND AND MEDICAL USE THEREOF” (SHANGHAI INSTITUTE OF MATERIA MEDICA, CHINESE ACADEMY OF …, priority 2023, dated 2025)
